Data: patent US20100074846A1, “Campylobacter Vaccines and Methods of use” (priority 2006, published 2010)

System: Campylobacter species pig isolates
Experiment: nalidixic acid and cephalothin antibiotic sensitivity and resistance testing of pig isolates
Assay type: cell-based, Campylobacter coli

Row | Structure (SMILES) | antibiotic sensitivity/resistance (pig isolate 1-Group B) | antibiotic sensitivity/resistance (pig isolate 2-Group B) | antibiotic sensitivity/resistance (pig isolate 3-Group A) | antibiotic sensitivity/resistance (pig isolate 3-Group B) | antibiotic sensitivity/resistance (pig isolate 4-Group A) | antibiotic sensitivity/resistance (pig isolate 6-Group A) | antibiotic sensitivity/resistance (pig isolate 7-Group A)
1 | CC(=O)OCC1=C(C(=O)O)N2C(=O)[C@@H](NC(=O)Cc3cccs3)[C@H]2SC1 [Cph, cephalothin] | S | R | R | R | S | R | R
2 | CCn1cc(C(=O)O)c(=O)c2ccc(C)nc21 [NA, nalidixic acid] | S | S | R | S | S | S | S
